Results reported in ChEMBL document CHEMBL3045332, “Synthesis of some new 2,6-disubstituted-3(2H)-pyridazinone derivatives and investigation of their analgesic, anti-inflammatory and antimicrobial activities” (Med Chem Res, 2013).
Values after ≈ are worked out from the molar mass of the structure shown.

What was measured:
Mus musculus [1] = assay: Analgesic activity in Swiss albino Mus musculus (mouse) assessed as inhibition of p-benzoquinone-induced writhing at 100 mg/kg, po administered 60 min prior to p-benzoquinone-challenge measured up to 15 min relative to control; assay type: functional
Escherichia coli [2] = assay: Antibacterial activity against Escherichia coli clinical isolate expressing extended spectrum beta-lactamase after 24 hr by two-fold serial dilution method; assay type: functional
Escherichia coli [3] = assay: Antibacterial activity against Escherichia coli ATCC 25922 after 24 hr by two-fold serial dilution method; assay type: functional; conditions: ATCC 25922, 24 h
Enterococcus faecalis [4] = assay: Antibacterial activity against Enterococcus faecalis clinical isolate after 24 hr by two-fold serial dilution method; assay type: functional
Mus musculus [5] = assay: Anti-inflammatory activity in Swiss albino Mus musculus (mouse) assessed as inhibition of carrageenan-induced paw edema at 100 mg/kg, po administered 60 min prior to crrageenan-challenge measured at 270 min relative to control; assay type: functional
Enterococcus faecalis [6] = assay: Antibacterial activity against Enterococcus faecalis ATCC 29212 after 24 hr by two-fold serial dilution method; assay type: functional; conditions: ATCC 29212, 24 h
Pseudomonas aeruginosa [7] = assay: Antibacterial activity against Pseudomonas aeruginosa ATCC 27853 after 24 hr by two-fold serial dilution method; assay type: functional; conditions: ATCC 27853, 24 h
Mus musculus [8] = assay: Ulcerogenic activity in p-benzoquinone-challenged Swiss albino Mus musculus (mouse) at 100 mg/kg, po administered 60 min prior to p-benzoquinone-challenge by microscopic analysis; assay type: toxicity, organism-based; set-up: dose 100 mg/kg, route oral; conditions: in vivo, 1 h
Staphylococcus aureus [9] = assay: Antibacterial activity against Staphylococcus aureus ATCC 29213 after 24 hr by two-fold serial dilution method; assay type: functional; conditions: ATCC 29213, 24 h
Candida albicans = assay: Antifungal activity against Candida albicans ATCC 10231 after 48 hr by two-fold serial dilution method; assay type: functional; conditions: ATCC 10231, 48 h
Pseudomonas aeruginosa [10] = assay: Antibacterial activity against Pseudomonas aeruginosa cloinical isolate after 24 hr by two-fold serial dilution method; assay type: functional
Pichia kudriavzevii = assay: Antifungal activity against Pichia kudriavzevii ATCC 6258 after 48 hr by two-fold serial dilution method; assay type: functional; conditions: ATCC 6258, 48 h
Mus musculus [11] = assay: Anti-inflammatory activity in Swiss albino Mus musculus (mouse) assessed as inhibition of carrageenan-induced paw edema at 100 mg/kg, po administered 60 min prior to crrageenan-challenge measured at 360 min relative to control; assay type: functional
Staphylococcus aureus [12] = assay: Antibacterial activity against methicillin-resistant Staphylococcus aureus clinical isolate after 24 hr by two-fold serial dilution method; assay type: functional
Mus musculus [13] = assay: Anti-inflammatory activity in Swiss albino Mus musculus (mouse) assessed as inhibition of carrageenan-induced paw edema at 100 mg/kg, po administered 60 min prior to crrageenan-challenge measured at 90 min relative to control; assay type: functional
Mus musculus [14] = assay: Anti-inflammatory activity in Swiss albino Mus musculus (mouse) assessed as inhibition of carrageenan-induced paw edema at 100 mg/kg, po administered 60 min prior to crrageenan-challenge measured at 180 min relative to control; assay type: functional
Mus musculus [15] = assay: Anti-inflammatory activity in Swiss albino Mus musculus (mouse) assessed as inhibition of carrageenan-induced paw edema at 10 mg/kg, po administered 60 min prior to crrageenan-challenge measured at 90 min relative to control; assay type: functional
Mus musculus [16] = assay: Anti-inflammatory activity in Swiss albino Mus musculus (mouse) assessed as inhibition of carrageenan-induced paw edema at 10 mg/kg, po administered 60 min prior to crrageenan-challenge measured at 180 min relative to control; assay type: functional
Mus musculus [17] = assay: Anti-inflammatory activity in Swiss albino Mus musculus (mouse) assessed as inhibition of carrageenan-induced paw edema at 10 mg/kg, po administered 60 min prior to crrageenan-challenge measured at 270 min relative to control; assay type: functional
Mus musculus [18] = assay: Anti-inflammatory activity in Swiss albino Mus musculus (mouse) assessed as inhibition of carrageenan-induced paw edema at 10 mg/kg, po administered 60 min prior to crrageenan-challenge measured at 360 min relative to control; assay type: functional

Work on `O=c1ccc(-c2ccccc2)nn1CCN1CCN(c2ccccc2)CC1` yielded an inhibition in vivo at 100 mg/kg (Mus musculus [1]) of 10.7%, an MIC (Escherichia coli [2]) of 64 µg/mL (≈ 178 µM) and an MIC (Escherichia coli [3]) of 64 µg/mL (≈ 178 µM). It also gave an MIC (Enterococcus faecalis [4]) of 64 µg/mL (≈ 178 µM), an inhibition in vivo at 100 mg/kg (Mus musculus [5]) of 6.4% and an MIC (Enterococcus faecalis [6]) of 64 µg/mL (≈ 178 µM). For the same compound, the MIC (Pseudomonas aeruginosa [7]) was 64 µg/mL (≈ 178 µM), the Activity (Mus musculus [8]) was “Non-toxic” and the MIC (Staphylococcus aureus [9]) was 64 µg/mL (≈ 178 µM). It also gave an MIC (Candida albicans) of 32 µg/mL (≈ 88.8 µM), an MIC (Pseudomonas aeruginosa [10]) of 64 µg/mL (≈ 178 µM) and an MIC (Pichia kudriavzevii) of 32 µg/mL (≈ 88.8 µM). It also gave an inhibition in vivo at 100 mg/kg (Mus musculus [11]) of 3.1% and an MIC (Staphylococcus aureus [12]) of 128 µg/mL (≈ 355 µM).
Work on `CC1(C)S[C@@H]2[C@H](NC(=O)[C@H](N)c3ccccc3)C(=O)N2[C@H]1C(=O)O` [AMPICILLIN] yielded an MIC (Escherichia coli [2]) of 64 µg/mL (≈ 183 µM), an MIC (Escherichia coli [3]) of 8 µg/mL (≈ 22.9 µM) and an MIC (Enterococcus faecalis [4]) of 4 µg/mL (≈ 11.4 µM). The MIC (Enterococcus faecalis [6]) was 2 µg/mL (≈ 5.72 µM), the MIC (Staphylococcus aureus [9]) was 2 µg/mL (≈ 5.72 µM) and the MIC (Staphylococcus aureus [12]) was 32 µg/mL (≈ 91.6 µM).
For `COc1ccc(-c2ccc(=O)n(CCN3CCN(c4ccc(Cl)cc4)CC3)n2)cc1`, the inhibition in vivo at 100 mg/kg (Mus musculus [1]) was 44.4%, the MIC (Escherichia coli [2]) was 64 µg/mL (≈ 151 µM) and the MIC (Escherichia coli [3]) was 64 µg/mL (≈ 151 µM). For the same compound, the MIC (Enterococcus faecalis [4]) was 64 µg/mL (≈ 151 µM), the inhibition in vivo at 100 mg/kg (Mus musculus [5]) was 27.5% and the MIC (Enterococcus faecalis [6]) was 64 µg/mL (≈ 151 µM). For the same compound, the MIC (Pseudomonas aeruginosa [7]) was 64 µg/mL (≈ 151 µM), the Activity (Mus musculus [8]) was “Toxic” and the inhibition in vivo at 100 mg/kg (Mus musculus [13]) was 16.9%. The MIC (Staphylococcus aureus [9]) was 64 µg/mL (≈ 151 µM), the MIC (Candida albicans) was 32 µg/mL (≈ 75.3 µM) and the MIC (Pseudomonas aeruginosa [10]) was 64 µg/mL (≈ 151 µM). The MIC (Pichia kudriavzevii) was 32 µg/mL (≈ 75.3 µM), the inhibition in vivo at 100 mg/kg (Mus musculus [14]) was 19.8% and the inhibition in vivo at 100 mg/kg (Mus musculus [11]) was 26.2%. For the same compound, the MIC (Staphylococcus aureus [12]) was 128 µg/mL (≈ 301 µM).
`COc1ccc(N2CCN(CCn3nc(-c4ccccc4)ccc3=O)CC2)cc1` gave an inhibition in vivo at 100 mg/kg (Mus musculus [1]) of 8.6%, an MIC (Escherichia coli [2]) of 64 µg/mL (≈ 164 µM) and an MIC (Escherichia coli [3]) of 64 µg/mL (≈ 164 µM). The MIC (Enterococcus faecalis [4]) was 64 µg/mL (≈ 164 µM), the MIC (Enterococcus faecalis [6]) was 64 µg/mL (≈ 164 µM) and the MIC (Pseudomonas aeruginosa [7]) was 64 µg/mL (≈ 164 µM). The Activity (Mus musculus [8]) was “Non-toxic”, the MIC (Staphylococcus aureus [9]) was 64 µg/mL (≈ 164 µM) and the MIC (Candida albicans) was 32 µg/mL (≈ 81.9 µM). It also gave an MIC (Pseudomonas aeruginosa [10]) of 64 µg/mL (≈ 164 µM), an MIC (Pichia kudriavzevii) of 32 µg/mL (≈ 81.9 µM) and an MIC (Staphylococcus aureus [12]) of 128 µg/mL (≈ 328 µM).
Compound `COc1ccc(-c2ccc(=O)n(CCN3CCN(c4ccc(F)cc4)CC3)n2)cc1` has an inhibition in vivo at 100 mg/kg (Mus musculus [1]) of 47.6%, an MIC (Escherichia coli [2]) of 64 µg/mL (≈ 157 µM) and an MIC (Escherichia coli [3]) of 64 µg/mL (≈ 157 µM). For the same compound, the MIC (Enterococcus faecalis [4]) was 64 µg/mL (≈ 157 µM), the inhibition in vivo at 100 mg/kg (Mus musculus [5]) was 22.9% and the MIC (Enterococcus faecalis [6]) was 64 µg/mL (≈ 157 µM). For the same compound, the MIC (Pseudomonas aeruginosa [7]) was 64 µg/mL (≈ 157 µM), the Activity (Mus musculus [8]) was “Toxic” and the inhibition in vivo at 100 mg/kg (Mus musculus [13]) was 16.2%. For the same compound, the MIC (Staphylococcus aureus [9]) was 64 µg/mL (≈ 157 µM), the MIC (Candida albicans) was 32 µg/mL (≈ 78.3 µM) and the MIC (Pseudomonas aeruginosa [10]) was 64 µg/mL (≈ 157 µM). It also gave an MIC (Pichia kudriavzevii) of 32 µg/mL (≈ 78.3 µM), an inhibition in vivo at 100 mg/kg (Mus musculus [14]) of 15.5% and an inhibition in vivo at 100 mg/kg (Mus musculus [11]) of 18.3%. It also gave an MIC (Staphylococcus aureus [12]) of 128 µg/mL (≈ 313 µM).
`O=c1ccc(-c2ccc(Cl)cc2)nn1CCN1CCN(c2ccc(F)cc2)CC1` showed an inhibition in vivo at 100 mg/kg (Mus musculus [1]) of 57.5%, an MIC (Escherichia coli [2]) of 64 µg/mL (≈ 155 µM) and an MIC (Escherichia coli [3]) of 64 µg/mL (≈ 155 µM). The MIC (Enterococcus faecalis [4]) was 64 µg/mL (≈ 155 µM), the inhibition in vivo at 100 mg/kg (Mus musculus [5]) was 35.3% and the MIC (Enterococcus faecalis [6]) was 64 µg/mL (≈ 155 µM). For the same compound, the MIC (Pseudomonas aeruginosa [7]) was 64 µg/mL (≈ 155 µM), the Activity (Mus musculus [8]) was “Non-toxic” and the inhibition in vivo at 100 mg/kg (Mus musculus [13]) was 29.5%. It also gave an MIC (Staphylococcus aureus [9]) of 64 µg/mL (≈ 155 µM), an MIC (Candida albicans) of 32 µg/mL (≈ 77.5 µM) and an MIC (Pseudomonas aeruginosa [10]) of 64 µg/mL (≈ 155 µM). It also gave an MIC (Pichia kudriavzevii) of 32 µg/mL (≈ 77.5 µM), an inhibition in vivo at 100 mg/kg (Mus musculus [14]) of 28.3% and an inhibition in vivo at 100 mg/kg (Mus musculus [11]) of 28.8%. The MIC (Staphylococcus aureus [12]) was 128 µg/mL (≈ 310 µM).
Work on `CC1COc2c(N3CCN(C)CC3)c(F)cc3c(=O)c(C(=O)O)cn1c23` (centres undefined) [OFLOXACIN] yielded an MIC (Escherichia coli [2]) of 16 µg/mL (≈ 44.3 µM), an MIC (Enterococcus faecalis [4]) of 2 µg/mL (≈ 5.53 µM) and an MIC (Enterococcus faecalis [6]) of 1 µg/mL (≈ 2.77 µM). For the same compound, the MIC (Staphylococcus aureus [9]) was 0.5 µg/mL (≈ 1.38 µM), the MIC (Pseudomonas aeruginosa [10]) was 32 µg/mL (≈ 88.6 µM) and the MIC (Staphylococcus aureus [12]) was 2 µg/mL (≈ 5.53 µM).
For `COc1ccc(-c2ccc(=O)n(CCN3CCN(c4ccccc4)CC3)n2)cc1`, the inhibition in vivo at 100 mg/kg (Mus musculus [1]) was 18.4%, the MIC (Escherichia coli [2]) was 64 µg/mL (≈ 164 µM) and the MIC (Escherichia coli [3]) was 64 µg/mL (≈ 164 µM). For the same compound, the MIC (Enterococcus faecalis [4]) was 64 µg/mL (≈ 164 µM), the MIC (Enterococcus faecalis [6]) was 64 µg/mL (≈ 164 µM) and the MIC (Pseudomonas aeruginosa [7]) was 64 µg/mL (≈ 164 µM). The Activity (Mus musculus [8]) was “Non-toxic”, the inhibition in vivo at 100 mg/kg (Mus musculus [13]) was 11.9% and the MIC (Staphylococcus aureus [9]) was 64 µg/mL (≈ 164 µM). It also gave an MIC (Candida albicans) of 32 µg/mL (≈ 81.9 µM), an MIC (Pseudomonas aeruginosa [10]) of 64 µg/mL (≈ 164 µM) and an MIC (Pichia kudriavzevii) of 32 µg/mL (≈ 81.9 µM). For the same compound, the inhibition in vivo at 100 mg/kg (Mus musculus [14]) was 12.6% and the MIC (Staphylococcus aureus [12]) was 128 µg/mL (≈ 328 µM).
`COc1ccc2c(c1)c(CC(=O)O)c(C)n2C(=O)c1ccc(Cl)cc1` [INDOMETHACIN] gave an inhibition in vivo at 10 mg/kg (Mus musculus [15]) of 25.3%, an inhibition in vivo at 10 mg/kg (Mus musculus [16]) of 36.9% and an inhibition in vivo at 10 mg/kg (Mus musculus [17]) of 37.6%. The inhibition in vivo at 10 mg/kg (Mus musculus [18]) was 39.4%.
